Holding throughout (assay): Cytochrome P450 Inhibition of VNN1 Inhibitors
One data set concerns the target T1, Cytochrome P450 1A2 (Homo sapiens, UniProt P05177).
T1 sequence (P05177 whole entry): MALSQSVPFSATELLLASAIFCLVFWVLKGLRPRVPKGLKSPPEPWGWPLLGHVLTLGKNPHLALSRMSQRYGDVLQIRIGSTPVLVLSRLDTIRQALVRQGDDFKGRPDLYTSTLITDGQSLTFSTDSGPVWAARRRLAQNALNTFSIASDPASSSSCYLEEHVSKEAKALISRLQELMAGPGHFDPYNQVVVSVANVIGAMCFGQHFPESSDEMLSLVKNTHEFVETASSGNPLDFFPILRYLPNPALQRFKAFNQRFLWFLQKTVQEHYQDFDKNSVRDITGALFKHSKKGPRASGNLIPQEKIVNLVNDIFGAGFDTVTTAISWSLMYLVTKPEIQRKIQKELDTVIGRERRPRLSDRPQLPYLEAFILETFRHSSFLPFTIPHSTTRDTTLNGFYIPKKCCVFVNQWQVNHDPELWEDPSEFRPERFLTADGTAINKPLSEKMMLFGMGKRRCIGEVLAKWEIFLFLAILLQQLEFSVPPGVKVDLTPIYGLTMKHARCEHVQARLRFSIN
How it is done: (§1) Table 3 and 4: The cocktail was incubated in human liver microsome with NADPH regenerating system (NRS) in a shaking bath at 37±2° C. The formation of specific metabolites was monitored by LC/MS/MS. Test compound was added to the cocktail-liver microsome mixture at varying concentrations and its effect on cytochrome P450 activity was determined by analyzing the rate of specific metabolite formation. The percent inhibition was calculated and plotted with reference to the concentration, and the IC50 value for inhibition was derived by fitting the data with a standard sigmoidal dose-response equation via MLA “Quest Graph™ ED50 Calculator.” AAT Bioquest, Inc, 17 Sep. 2020, aatbio.com/tools/ed50-calculator. […] The reliability of the inhibition assay was established by confirming the inhibition of known inhibitors on different P450 enzymes.

Another data set concerns the target Cytochrome P450 2C19 (Homo sapiens, UniProt P33261). How it is done: as §1
A further data set addresses Cytochrome P450 2C9 (Homo sapiens, UniProt P11712). How it is done:
as §1

Sequence of Cytochrome P450 2C19 (P33261 whole entry): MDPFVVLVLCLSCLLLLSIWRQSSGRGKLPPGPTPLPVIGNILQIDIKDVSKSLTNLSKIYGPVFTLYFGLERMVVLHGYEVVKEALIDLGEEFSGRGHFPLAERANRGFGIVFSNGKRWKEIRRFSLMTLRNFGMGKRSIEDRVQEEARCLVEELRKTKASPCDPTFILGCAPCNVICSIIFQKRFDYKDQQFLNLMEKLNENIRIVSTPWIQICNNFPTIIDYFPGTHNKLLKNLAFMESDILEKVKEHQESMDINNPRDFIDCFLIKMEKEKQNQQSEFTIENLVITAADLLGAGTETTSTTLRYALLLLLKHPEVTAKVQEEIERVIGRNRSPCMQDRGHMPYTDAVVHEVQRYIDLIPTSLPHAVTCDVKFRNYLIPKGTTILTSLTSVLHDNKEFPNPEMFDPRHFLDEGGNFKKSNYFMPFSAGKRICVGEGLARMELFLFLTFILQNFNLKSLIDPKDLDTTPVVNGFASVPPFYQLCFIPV
Sequence of Cytochrome P450 2C9 (P11712 whole entry): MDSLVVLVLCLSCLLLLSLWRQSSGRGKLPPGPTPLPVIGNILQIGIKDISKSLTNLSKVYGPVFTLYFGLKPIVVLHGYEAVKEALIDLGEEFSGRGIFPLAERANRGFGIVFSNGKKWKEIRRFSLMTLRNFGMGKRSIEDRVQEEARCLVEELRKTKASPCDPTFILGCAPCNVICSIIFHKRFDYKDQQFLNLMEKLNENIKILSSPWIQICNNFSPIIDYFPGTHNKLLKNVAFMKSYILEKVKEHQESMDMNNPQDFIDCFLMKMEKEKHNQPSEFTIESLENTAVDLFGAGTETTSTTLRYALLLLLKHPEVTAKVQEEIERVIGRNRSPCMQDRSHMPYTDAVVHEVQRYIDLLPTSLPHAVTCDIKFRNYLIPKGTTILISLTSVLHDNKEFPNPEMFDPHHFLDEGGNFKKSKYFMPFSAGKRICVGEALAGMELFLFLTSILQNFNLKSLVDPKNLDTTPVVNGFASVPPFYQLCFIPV

A word on the IC50: it is the midpoint of a concentration-inhibition curve. Lower therefore signals greater potency in that assay. For the molecule `CC(C)(CO)[C@@H](O)C(=O)n1ccc(C(=O)N2CCCC2)c1` [US20250042850, Compound 10], the 50% inhibitory concentration (IC50) at Cytochrome P450 1A2 was above 100 µM; against Cytochrome P450 2C19, 62.6 µM; at Cytochrome P450 2C9 it was above 100 µM.
